Where two headings read alike, the source gives them in different places.
Legend:
[1] = SEC-MALS oligomeric state of FtsA in solution; format: physicochemical
Method: Light scattering was recorded on a miniDAWN light scattering device (Wyatt). Changes in the refractive index were used to define the peak area, which was used to obtain the molecular mass. The analysis of the data was performed with the ASTRA software (Wyatt).

FtsZ [2] = conditions: 1.25 µM FtsZ, FtsA 0.1–0.8 µM
Method: Additionally, the reaction chamber contained 4 mM ATP and 4 mM GTP, as well as a scavenging system to minimize photobleaching effects: 30 mM d-glucose, 0.050 mg ml^−1 Glucose Oxidase, 0.016 mg ml^−1 Catalase, 1 mM DTT and 1 mM Trolox. Prior addition of all components a corresponding buffer volume was removed from the chamber to obtain a total reaction volume of 100 µl. The dynamic protein pattern was monitored by time-lapse TIRF microscopy at one frame per 2 s and 50 ms exposure time.
Treadmilling dynamics, were quantified using an automated image analysis protocol previously developed by our group. To visualize colocalization of the co-treadmilling FtsZ & FtsA filaments, we used dual-colour videos obtained at an acquisition rate of one frame per 2 s. The two channels were aligned using FIJI’s 3TP align plugin. Both channels were then subjected to the image subtraction protocol and colocalization was measured as described above.

FtsZ [3] = conditions: for Pearson correlation coefficient (PCC) FtsA/FtsZ: 1.25 µM FtsZ
Text: Time-lapse videos were first intensity-corrected and contrast-enhanced to avoid bleaching effects and simplify subsequent analysis. To remove contributions of X–Y drift, the videos were processed with the Linear Stack Alignment with SIFT plugin. […] Subsequently, regions of interest (ROIs) in the center of the stacks were chosen for colocalization analysis. The Pearson’s correlation coefficient (PCC) was quantified with the Image CorrelationJ 1o plugin. To extract information about the relative ratio of FtsZ/FtsA molecules (slope of linear regression), we also used the Image CorrelationJ 1o plugin. As an output, the plugin provides a scatterplot of FtsZ vs FtsA intensities, to which we fitted a linear slope y=k⋅x+d , where k is the slope and d the offset. The slope was used as an estimate for the ratio of FtsA molecules below FtsZ filaments[42].

FtsZ [4] = conditions: for PCCdiff FtsA/FtsZ: 1.25 µM FtsZ, mean ± s.d.
Text: For this aim, we prepared differential time lapse movies[24], where we subtract the intensities of consecutive frames to selectively visualize the growing ends of filament bundles (Fig. 1d). We then calculated the Pearson correlation coefficient between the two channels of the differential movies (PCCdiff), which quantifies the covariation of the fluorescence signals for FtsA and FtsZ at the growing end of a filament bundle with a time resolution of the acquisition rate[4],[23],[24].
Treadmilling dynamics, were quantified using an automated image analysis protocol previously developed by our group[24]. To visualize colocalization of the co-treadmilling FtsZ & FtsA filaments, we used dual-colour videos obtained at an acquisition rate of one frame per 2 s. The two channels were aligned using FIJI’s 3TP align plugin. Both channels were then subjected to the image subtraction protocol and colocalization was measured as described above.

[5] = 0.1µM FtsA, replicate 1 (row printed 'goo')
[6] = 0.2µM FtsA, replicate 1 (row printed 'goo')
[7] = 0.4 µM FtsA, mean ± s.d., WT vs R286W p-value 1.28 × 10^−5
[8] = 0.4µM FtsA, replicate 1 (row printed 'goo')
[9] = 0.8µM FtsA, replicate 1 (row printed 'goo')
[10] = 0.1µM FtsAs, replicate column 1
[11] = 0.1µM FtsAs, replicate column 2
[12] = 0.1µM FtsAs, replicate column 3
[13] = 0.2µM FtsAs, replicate column 1
[14] = 0.2µM FtsAs, replicate column 2
[15] = 0.2µM FtsAs, replicate column 3
[16] = 0.2µM FtsAs, replicate column 4
[17] = 0.2µM FtsAs, replicate column 5
[18] = 0.4 µM FtsA, p-value 1.82 × 10^−4
[19] = 0.4µM FtsAs, replicate column 1
[20] = 0.4µM FtsAs, replicate column 2
[21] = 0.4µM FtsAs, replicate column 3
[22] = 0.8µM FtsAs, replicate column 1
[23] = 0.8µM FtsAs, replicate column 2
[24] = 0.8µM FtsAs, replicate column 3
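Wherever PCC FtsA/FtsZ, mean of experiment (head 'Fig.1e PCC'; n and values fit Fig. 1f PCCdiff) is given: pearson correlation of FtsA and FtsZ channels in dual-colour TIRF movies after subtracting consecutive frames to isolate growing filament ends, one frame per 2 s, ATP and GTP present.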
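Wherever PCCdiff FtsA/FtsZ is given: pearson correlation of FtsA and FtsZ channels in dual-colour TIRF movies after subtracting consecutive frames to isolate growing filament ends, one frame per 2 s, ATP and GTP present.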

Molecule: FtsA WT: wild-type E. coli actin-homologue FtsA, membrane anchor of FtsZ
- oligomeric state in solution [1]: monomeric in solution
- effect on FtsZ treadmilling velocity (FtsZ [2]): could not observe a significant effect
- Pearson correlation coefficient (PCC) FtsA/FtsZ (FtsZ [3]; 0.1 µM FtsA, steady state about 15 min, mean ± s.d.): 0.78 ± 0.04
- PCC FtsZ/FtsA (FtsZ [3]; 0.1µM FtsA, Exp. 2): 0.79
- PCC FtsZ/FtsA (FtsZ [3]; [5]): 0.77
- Pearson correlation coefficient (PCC) FtsA/FtsZ (FtsZ [3]; 0.2 µM FtsA, steady state about 15 min, mean ± s.d.): 0.69 ± 0.06
- PCC FtsZ/FtsA (FtsZ [3]; 0.2µM FtsA, Exp. 2): 0.62
- PCC FtsZ/FtsA (FtsZ [3]; [6]): 0.61
- Pearson correlation coefficient (PCC) FtsA/FtsZ (FtsZ [3]; [7]): 0.32 ± 0.12
- PCC FtsZ/FtsA (FtsZ [3]; 0.4µM FtsA, Exp. 2): 0.40
- PCC FtsZ/FtsA (FtsZ [3]; [8]): 0.43
- Pearson correlation coefficient (PCC) FtsA/FtsZ (FtsZ [3]; 0.8 µM FtsA, mean ± s.d.): 0.27 ± 0.09
- PCC FtsZ/FtsA (FtsZ [3]; 0.8µM FtsA, Exp. 2): 0.29
- PCC FtsZ/FtsA (FtsZ [3]; [9]): 0.38
- PCC FtsA/FtsZ, mean of experiment (head 'Fig.1e_PCC'; n and values fit Fig. 1f PCCdiff) (FtsZ [4]; [10]): 0.69
- PCC FtsA/FtsZ, mean of experiment (head 'Fig.1e_PCC'; n and values fit Fig. 1f PCCdiff) (FtsZ [4]; [11]): 0.76
- PCC FtsA/FtsZ, mean of experiment (head 'Fig.1e_PCC'; n and values fit Fig. 1f PCCdiff) (FtsZ [4]; [12]): 0.71
- PCC FtsA/FtsZ, mean of experiment (head 'Fig.1e_PCC'; n and values fit Fig. 1f PCCdiff) (FtsZ [4]; 0.1µM FtsAs, replicate column 4): 0.71
- PCC FtsA/FtsZ, mean of experiment (head 'Fig.1e_PCC'; n and values fit Fig. 1f PCCdiff) (FtsZ [4]; 0.1µM FtsAs, replicate column 5): 0.86
- PCC FtsA/FtsZ, mean of experiment (head 'Fig.1e_PCC'; n and values fit Fig. 1f PCCdiff) (FtsZ [4]; 0.1µM FtsAs, replicate column 6): 0.67
- PCC FtsA/FtsZ, mean of experiment (head 'Fig.1e_PCC'; n and values fit Fig. 1f PCCdiff) (FtsZ [4]; [13]): 0.62
- PCC FtsA/FtsZ, mean of experiment (head 'Fig.1e_PCC'; n and values fit Fig. 1f PCCdiff) (FtsZ [4]; [14]): 0.58
- PCC FtsA/FtsZ, mean of experiment (head 'Fig.1e_PCC'; n and values fit Fig. 1f PCCdiff) (FtsZ [4]; [15]): 0.67
- PCC FtsA/FtsZ, mean of experiment (head 'Fig.1e_PCC'; n and values fit Fig. 1f PCCdiff) (FtsZ [4]; [16]): 0.71
- PCC FtsA/FtsZ, mean of experiment (head 'Fig.1e_PCC'; n and values fit Fig. 1f PCCdiff) (FtsZ [4]; [17]): 0.74
- PCC FtsA/FtsZ, mean of experiment (head 'Fig.1e_PCC'; n and values fit Fig. 1f PCCdiff) (FtsZ [4]; 0.2µM FtsAs, replicate column 6): 0.57
- PCCdiff FtsA/FtsZ (FtsZ [4]; [18]): 0.18 ± 0.04
- PCC FtsA/FtsZ, mean of experiment (head 'Fig.1e_PCC'; n and values fit Fig. 1f PCCdiff) (FtsZ [4]; [19]): 0.18
- PCC FtsA/FtsZ, mean of experiment (head 'Fig.1e_PCC'; n and values fit Fig. 1f PCCdiff) (FtsZ [4]; [20]): 0.12
- PCC FtsA/FtsZ, mean of experiment (head 'Fig.1e_PCC'; n and values fit Fig. 1f PCCdiff) (FtsZ [4]; [21]): 0.23
- PCC FtsA/FtsZ, mean of experiment (head 'Fig.1e_PCC'; n and values fit Fig. 1f PCCdiff) (FtsZ [4]; [22]): 0.10
- PCC FtsA/FtsZ, mean of experiment (head 'Fig.1e_PCC'; n and values fit Fig. 1f PCCdiff) (FtsZ [4]; [23]): 0.12
- PCC FtsA/FtsZ, mean of experiment (head 'Fig.1e_PCC'; n and values fit Fig. 1f PCCdiff) (FtsZ [4]; [24]): 0.05

B1: FtsA R286W (protein)
chain: MIKATDRKLVVGLEIGTAKVAALVGEVLPDGMVNIIGVGSCPSRGMDKGGVNDLESVVKCVQRAIDQAELMADCQISSVYLALSGKHISCQNEIGMVPISEEEVTQEDVENVVHTAKSVRVRDEHRVLHVIPQEYAIDYQEGIKNPVGLSGVRMQAKVHLITCHNDMAKNIVKAVERCGLKVDQLIFAGLASSYSVLTEDERELGVCVVDIGGGTMDIAVYTGGALRHTKVIPYAGNVVTSDIAYAFGTPPSDAEAIKVRHGCALGSIVGKDESVEVPSVGGRPPWSLQRQTLAEVIEPRYTELLNLVNEEILQLQEKLRQQGVKHHLAAGIVLTGGAAQIEGLAACAQRVFHTQVRIGAPLNITGLTDYAQEPYYSTAVGLLHYGKESHLNGEAEVEKRVTASVGSWIKRLNSWLRKEF
modifications: Cy3 or Cy5 at the N-terminus in the labelled form (labelled CLEPTGG peptide conjugated to the 5xGly tag by sortagging); unlabelled protein also used; left off: TwinStrep-SUMO, N-terminal, cleaved | 5x
- oligomeric state in solution [1]: monomeric in solution
- effect on FtsZ treadmilling velocity (FtsZ [2]): could not detect a difference
- PCC FtsZ/FtsA (FtsZ [3]; 0.1µM FtsA, Exp. 2): 0.41
- PCC FtsZ/FtsA (FtsZ [3]; [5]): 0.73
- PCC FtsZ/FtsA (FtsZ [3]; 0.2µM FtsA, Exp. 2): 0.77
- PCC FtsZ/FtsA (FtsZ [3]; [6]): 0.89
- Pearson correlation coefficient (PCC) FtsA/FtsZ (FtsZ [3]; [7]): 0.84 ± 0.05
- PCC FtsZ/FtsA (FtsZ [3]; 0.4µM FtsA, Exp. 2): 0.83
- PCC FtsZ/FtsA (FtsZ [3]; [8]): 0.89
- PCC FtsZ/FtsA (FtsZ [3]; 0.8µM FtsA, Exp. 2): 0.83
- PCC FtsZ/FtsA (FtsZ [3]; [9]): 0.88
- Pearson correlation coefficient (PCC) FtsA/FtsZ (FtsZ [3]; all concentrations tested (0.1–0.8 µM)): around 0.8
- PCC FtsA/FtsZ, mean of experiment (head 'Fig.1e_PCC'; n and values fit Fig. 1f PCCdiff) (FtsZ [4]; [10]): 0.68
- PCC FtsA/FtsZ, mean of experiment (head 'Fig.1e_PCC'; n and values fit Fig. 1f PCCdiff) (FtsZ [4]; [11]): 0.67
- PCC FtsA/FtsZ, mean of experiment (head 'Fig.1e_PCC'; n and values fit Fig. 1f PCCdiff) (FtsZ [4]; [12]): 0.48
- PCC FtsA/FtsZ, mean of experiment (head 'Fig.1e_PCC'; n and values fit Fig. 1f PCCdiff) (FtsZ [4]; [13]): 0.74
- PCC FtsA/FtsZ, mean of experiment (head 'Fig.1e_PCC'; n and values fit Fig. 1f PCCdiff) (FtsZ [4]; [14]): 0.79
- PCC FtsA/FtsZ, mean of experiment (head 'Fig.1e_PCC'; n and values fit Fig. 1f PCCdiff) (FtsZ [4]; [15]): 0.75
- PCC FtsA/FtsZ, mean of experiment (head 'Fig.1e_PCC'; n and values fit Fig. 1f PCCdiff) (FtsZ [4]; [16]): 0.76
- PCC FtsA/FtsZ, mean of experiment (head 'Fig.1e_PCC'; n and values fit Fig. 1f PCCdiff) (FtsZ [4]; [17]): 0.68
- PCCdiff FtsA/FtsZ (FtsZ [4]; [18]): 0.76 ± 0.04
- PCC FtsA/FtsZ, mean of experiment (head 'Fig.1e_PCC'; n and values fit Fig. 1f PCCdiff) (FtsZ [4]; [19]): 0.72
- PCC FtsA/FtsZ, mean of experiment (head 'Fig.1e_PCC'; n and values fit Fig. 1f PCCdiff) (FtsZ [4]; [20]): 0.78
- PCC FtsA/FtsZ, mean of experiment (head 'Fig.1e_PCC'; n and values fit Fig. 1f PCCdiff) (FtsZ [4]; [21]): 0.82
- PCC FtsA/FtsZ, mean of experiment (head 'Fig.1e_PCC'; n and values fit Fig. 1f PCCdiff) (FtsZ [4]; 0.4µM FtsAs, replicate column 4): 0.72
- PCCdiff FtsA/FtsZ (FtsZ [4]; 0.8 µM FtsA R286W): 0.76 ± 0.05
- PCC FtsA/FtsZ, mean of experiment (head 'Fig.1e_PCC'; n and values fit Fig. 1f PCCdiff) (FtsZ [4]; [22]): 0.79
- PCC FtsA/FtsZ, mean of experiment (head 'Fig.1e_PCC'; n and values fit Fig. 1f PCCdiff) (FtsZ [4]; [23]): 0.82
- PCC FtsA/FtsZ, mean of experiment (head 'Fig.1e_PCC'; n and values fit Fig. 1f PCCdiff) (FtsZ [4]; [24]): 0.76
- PCC FtsA/FtsZ, mean of experiment (head 'Fig.1e_PCC'; n and values fit Fig. 1f PCCdiff) (FtsZ [4]; 0.8µM FtsAs, replicate column 4): 0.69
